Where “and” joins values, the source holds several entries; their conditions need not be identical. Identical values can stand only once. Peptide text beside a SMILES is read from it.
Tests used:
[1] = target: major capsid protein (p24) of HIV-1 (HIV-1) (UniProt P04591)
[2] = target: viral capsid protein (p24) of HIV-2 (HIV-2)
[3] = target: viral capsid protein (p24) of SIV (SIV)
[4] = target: major capsid protein (p24) of HIV-1 (HIV-1) (UniProt P04591); remark: listed apart in the source
[5] = target: T1, recombinant p24 (viral capsid protein) (Human immunodeficiency virus type 1 group M subtype B, UniProt P04591); test: dialysis-based binding assay with 14C-GPG-NH2; design: species or system HIV-1
T1 construct: AIDS program, NCIB (gift)
Description: (§1) To determine whether the peptide agents listed in Table 1 bound to the viral capsid protein p24, an in vitro binding assay was performed. As described previously, a dialysis-based binding assay was conducted using a dialysis membrane with a pore size of less than 10 kD. (Slide-A-Lyzer, Pierce). Fifty microliters of a 10 μM stock of the recombinant proteins p24, gp120 (gifts from the AIDS program, NCIB) and BSA (Sigma) were introduced into separate dialysis membranes and the proteins were dialyzed at 4° C. for 2 days against a 500 ml solution composed of 150 mM NaCl and 50 mM Tris-HCl, pH 7.4 buffer, and 27.5 μM of ^14C-GPG-NH2 (Amersham Ltd. UK). Subsequently, ten or five microliter aliquots of the dialyzed p24, gp 120, and BSA were removed and mixed with 3 ml of ReadySafe (Beckman) in a scintillation vial. The C^14 was then detected by scintillation counting.
(§2) In Table 2, the results from a representative dialysis-based binding assay are provided. […] The amount of radioactive GPG-NH2 associated with p24 was 7.5 times greater than that present in the buffer.

recombinant gp120 = target: T2, recombinant gp120 (Human immunodeficiency virus type 1 group M subtype B, UniProt P03375); test: dialysis-based binding assay with 14C-GPG-NH2
T2 construct: recombinant proteins p24, gp120 (gifts from the AIDS program, NCIB); AIDS program, NCIB (gift)
Description: To determine whether the peptide agents listed in Table 1 bound to the viral capsid protein p24, an in vitro binding assay was performed. As described previously, a dialysis-based binding assay was conducted using a dialysis membrane with a pore size of less than 10 kD. (Slide-A-Lyzer, Pierce). […] Subsequently, ten or five microliter aliquots of the dialyzed p24, gp 120, and BSA were removed and mixed with 3 ml of ReadySafe (Beckman) in a scintillation vial. The C^14 was then detected by scintillation counting.

BSA = target: T3, BSA (Bos taurus, UniProt P02769); test: dialysis-based binding assay with 14C-GPG-NH2
T3 construct: purchased Sigma
Description: as §1, §2

HIV-1 SF-2 virus = test: electron microscopy of HIV-1 particles from infected HUT78 cells; type: cell-based; settings: 1 μM or 10 μM added 3, 5 or 7 days post infection; cells fixed day 14
Description: Evidence that peptide agents inhibit or prevent viral capsid protein polymerization and, thus, proper nucleocapsid assembly was obtained by performing electron microscopy on HIV-1 particles that were contacted with a modified small peptide. In this set of experiments, HUT78 cells were infected with HIV-1 SF-2 virus at 300TCID50 for 1 hr at 37° C. Subsequently, the infected cells were washed and pelleted 3 times. […] GPG-NH2 was then added into the cell cultures 3, 5 or 7 days post infection at concentration of 1 μm or 10 μM. A control sample was administered 0.5 μM Ritonavir (a protease inhibitor). The cells were cultured until day 14, at which point, the cells were fixed in 2.5% glutaraldehyde by conventional means. The fixed cells were then post-fixed in 1% OSO4 and were dehydrated, embedded with epoxy resins, and the blocks were allowed to polymerize. Epon sections of virus infected cells were made approximately 60-80 nm thin in order to accommodate the width of the nucleocapsid. The sections were mounted to grids stained with 1.0% uranyl acetate and were analyzed in a Zeiss CEM 902 microscope at an accelerating voltage of 80 kV. The microscope was equipped with a spectrometer to improve image quality and a liquid nitrogen cooling trap was used to reduce beam damage. The grids having sections of control and GPG-NH2 incubated cells were examined in several blind studies.
(See FIG. 1). […]

HIV-2 = test: viral infection assay in H9 cells, reverse transcriptase (RT) activity in supernatant; type: cell-based; settings: summary of the experiments in H9 cells
Description: (§3) Next, the ability of peptide agents to inhibit viral infection was evaluated. Accordingly, the peptide agents listed in Table 1 were used in several viral (e.g., HIV-1, HIV-2, and SIV) infection assays. […] Once inhibitory tripeptides were identified, more specific assays were conducted to determine the effect of varying concentrations of the selected tripeptides and combination treatments (e.g., the use of more than one modified tripeptide in combination).
(§4) To monitor the replication of virus, reverse transcriptase (RT) activity in the supernatants was assayed using a commercially available Lenti-RT activity kit. (Cavidi Tech, Uppsala, Sweden). The amount of RT was determined with the aid of a regression line of standards. […] Syncytium formation was also monitored by microscopic examination.
(§5) (Cavidi Tech). The amount of RT was determined with the aid of a regression line of standards.

SIV = test: as above; type: cell-based; settings: summary of the experiments in H9 cells
Description: as §3, §4, §5

HIV-1 = settings: summary of Experiments 1-6
Description: as §3

[6] = target: major capsid protein (p24) of HIV-1 (HIV-1) (UniProt P04591); remark: listed apart in the source
[7] = 27.5 μM 14C-GPG-NH2, dialysis 4° C. 2 days, dialysis buffer 1.816
[8] = radioactivity relative to dialysis buffer

## Gly-Pro-Gly-NH2 (peptide)
[1]
  reverse transcriptase (RT) activity in the supernatants, Day 10 RT (OD): 0.074 OD
[2]
  reverse transcriptase (RT) activity in the supernatants, Day 10 RT (OD): 0.145 OD
[3]
  reverse transcriptase (RT) activity in the supernatants, Day 10 RT (OD): 0.103 OD
[4]
  p24 production of infected HUT78 cells (HIV-1 p24 ELISA), Day 7 HIV-1, reduction (%), peptide at 100 µM: 97%

## NCC(=O)N1CCC[C@H]1C(=O)NCC(N)=O [GPG-NH2, glycyl-prolyl-glycine amide] (H-Gly-Pro-Gly-NH2)
[5]; [7]
  μCi/ml, sample p24: 13.712 μCi/ml
[5]; [8]
  times buffer, sample p24: 7.5 times buffer and 7.551 times buffer
Recombinant gp120; [7]
  μCi/ml, sample gp120: 1.745 μCi/ml
Recombinant gp120; in words
  radioactive GPG-NH2 associated with gp120 over the amount in the dialysis buffer: no appreciable amount
Recombinant gp120; [8]
  times buffer, sample gp120: 0.961 times buffer
BSA; [7]
  μCi/ml, sample BSA: 1.674 μCi/ml
BSA; in words
  radioactive GPG-NH2 associated with BSA over the amount in the dialysis buffer: no appreciable amount
BSA; [8]
  times buffer, sample BSA: 0.922 times buffer
HIV-1 SF-2 virus
  capsid/nucleocapsid morphology of HIV-1 particles: discernable capsid structures that are distinct from the Ritonavir-treated particles
HIV-2
  effect on HIV-2 infection, in words: inhibit or prevent HIV-2 and SIV infection
SIV
  effect on SIV infection, in words: inhibit or prevent HIV-2 and SIV infection
HIV-1
  effect on HIV-1 infection, in words: inhibited and/or prevented HIV-1 infection

## GPG-NH2 + GKG-NH2 + CQG-NH2 (pool or library)
[6]
  p24 in the supernatants of infected H9 cells, Day 14 HIV-1, reduction (%): 100%

— patent US20030050242A1, “Protein polymerization inhibitors and methods of use” (priority 1999, published 2003)
